Measured values: US20080033056A1 (Metaproteomics, LLC, priority 2006, published 2008)
Marks after values point to notes of the source that are not given here.

Tests used:
[1] = system: LPS-treated 3T3-L1 adipocytes; experiment: Adiponectin secretion in LPS/3T3-L1 adipocytes; assay type: cell-based, murine; details: for adiponectin secretion: any dose tested; for % Stimulation of adiponectin secretion (maximum): at the concentration of maximum stimulation, NS = not significantly different from the LPS control
3T3-L1 adipocytes = experiment: Lipogenesis in 3T3-L1 adipocytes (Oil Red O / BODIPY); assay type: cell-based, murine; details: relative to controls
Procedure: Prior to experiments, cells were cultured in DMEM containing 10% FBS-HI added 50 units penicillin/ml and 50 μg streptomycin/ml, and maintained in log phase prior to experimental setup. Cells were grown in a 5% CO2 humidified incubator at 37° C. Components of the pre-confluent medium included (1) 10% FBS/DMEM containing 4.5 g glucose/L; (2) 50 U/ml penicillin; and (3) 50 μg/ml streptomycin. Growth medium was made by adding 50 ml of heat inactivated FBS and 5 ml of penicillin/streptomycin to 500 ml DMEM. This medium was stored at 4° C. Before use, the medium was warmed to 37° C. in a water bath.
3T3-T1 cells were seeded at an initial density of 6×10^4 cells/cm^2 in 24-well plates. For two days, the cells were allowed grow to reach confluence. Following confluence, the cells were forced to differentiate into adipocytes by the addition of differentiation medium; this medium consisted of (1) 10% FBS/DMEM (high glucose); (2) 0.5 mM methylisobutylxanthine; (3) 0.5 μM dexamethasone and (4) 10 μg/ml insulin (MDI medium). After three days, the medium was changed to post-differentiation medium consisting of 10 μg/ml insulin in 10% FBS/DMEM.
AcE was partially dissolved in dimethyl sulfoxide (DMSO) and added to the culture medium to achieve a concentration of 50 μg/ml at Day 0 of differentiation and throughout the maturation phase (Days 6 or 7 (D6/7)). Whenever fresh media were added, fresh test material was also added. DMSO was chosen for its polarity and the fact that it is miscible with the aqueous cell culture media.
Oil Red O Staining—Triglyceride content of D6/D7-differentiated 3T3-L1 cells was estimated with Oil Red O according to the method of Kasturi and Joshi [Kasturi, R. and Joshi, V. C. […] Monolayer cells were washed with PBS (phosphate buffered saline, Mediatech) and fixed with 10% formaldehyde for ten minutes. Fixed cells were stained with an Oil Red O working solution of three parts 0.6% Oil Red O/isopropanol stock solution and two parts water for one hour and the excess stain was washed once with water. The resulting stained oil droplets were extracted from the cells with isopropanol and quantified by spectrophotometric analysis at 540 nm (MEL312e BIO-KINETICS READER, Bio-Tek Instruments, Winooski, Vt.).
Briefly, media were removed and cells were washed once with non-sterile PBS. A stock 1000× BODIPY/DMSO solution was made by dissolving 1 mg BODIPY in 1 ml DMSO (1,000 μg BODIPY/ml). […] After 15 min on an orbital shaker (DS-500, VWR Scientific Products, South Plainfield, N.J.) at ambient temperature, the cells were washed with 100 μl PBS followed by the addition of 100 μl PBS for reading for spectrofluorometric determination of BODIPY incorporation into the cells. […]

[2] = system: insulin-resistant 3T3-L1 adipocytes; experiment: Adiponectin secretion from insulin-resistant 3T3-L1 adipocytes; assay type: cell-based, murine; details: 50.0 μg/ml; ratio of Adiponectin Index to IL-6 Index (Table 21)
[3] = system: LPS-stimulated 3T3-L1 adipocytes; experiment: IL-6 secretion in LPS/3T3-L1 adipocytes; assay type: cell-based, murine; details: at the concentration of maximum inhibition, 100 ng LPS/ml, D5 3T3-L1; for IL-6 Index: indexed to LPS control
[4] = system: TNFα-treated 3T3-L1 adipocytes; experiment: Adiponectin secretion from TNFα-treated 3T3-L1 adipocytes; assay type: cell-based, murine; details: 10 ng TNFα/ml
Procedure: For two days, the cells were allowed grow to reach confluence. […] (3) 0.5 μM dexamethasone and (4) 10 μg/ml insulin (MDI medium). […] Adiponectin Assay—The adiponectin secreted into the medium was quantified using the Mouse Adiponectin Quantikine® Immunoassay kit with no modifications (R&D Systems, Minneapolis, Minn.). […] Statistical Calculations and Interpretation—All assays were preformed in duplicate. […] Differences among the doses and test agents were determined using the Student's t-test without correction for multiple comparisons; the nominal five percent probability of a type I error was selected.

db/db mice = experiment: Non-fasting serum glucose and insulin in db/db diabetic mice; assay type: in vivo, mouse; details: three daily doses
Procedure: The Model—Male, C57BLKS/J m^+/m^+Lepr^db (db/db) mice were used to assess the potential of the test materials to reduce fasting serum glucose or insulin concentrations. This strain of mice is resistant to leptin by virtue of the absence of a functioning leptin receptor.
Testing Procedure—Test substances were administered daily by gavage in 0.2% Tween-80. Serum was collected from the retroorbital sinus before the initial dose and ninety minutes after the third and final dose. Non-fasting serum glucose was determined enzymatically by the mutarotase/glucose oxidase method and serum insulin was determined by a mouse specific ELISA.
The Model—Male, C57BLKS/J m+/m+Leprdb (db/db) mice were used to assess the potential of the test materials to reduce fasting serum glucose or insulin concentrations. This strain of mice is resistant to leptin by virtue of the absence of a functioning leptin receptor.
Testing Procedure—Test substances were administered daily by gavage in 0.2% Tween-80. […] Non-fasting serum glucose was determined enzymatically by the mutarotase/glucose oxidase method and serum insulin was determined by a mouse specific ELISA.

DBA/J mice = experiment: Collagen induced rheumatoid arthritis murine model (arthritic index, histology, serum IL-6); assay type: in vivo, mouse; details: 10 mg/kg
[5] = system: insulin-resistant 3T3-L1 adipocytes; experiment: IL-6 secretion from insulin-resistant 3T3-L1 adipocytes; assay type: cell-based, murine
Procedure: Statistical Calculations and Interpretation—All assays were preformed in duplicate. For statistical analysis, the effect of hops derivatives on adiponectin or IL-6 secretion was computed relative to the solvent control. Differences among the doses were determined using analysis of variance without correction for multiple comparisons; the nominal five percent probability of a type I error was selected.

[6] = system: A549 pulmonary epithelial cells; experiment: PGE2 biosynthesis in A549 cells stimulated by mite dust allergen; assay type: cell-based, human; details: 10 μg/ml
Procedure: The filtrate was termed mite dust allergen and used to test for induction of PGE2 biosynthesis in A549 pulmonary epithelial cells.
Mite allergen was added to the culture medium to achieve a final concentration of 1000 ng/ml. Eighteen hours later, the media were sampled for PGE2 determination.

CC(=O)Oc1ccccc1C(=O)O [Aspirin]
adiponectin secretion ([1]; LPS 100 ng/ml): failed to induce adiponectin secretion

CC(C)CCC1=C(O)C(C(=O)C(C)C)=C(O)C(CCC(C)C)(CCC(C)C)C1=O [Hexahydro colupulone]
lipogenic/adipogenic response (3T3-L1 adipocytes): failed to elicit a lipogenic response

CC(C)CCC1=C(O)C(C(=O)C(C)C)=C(O)C(CCC(C)C)(CCC(C)C)C1=O [Hexahydrocolupulone (HHCL)]
Adiponectin/IL-6 [2]: 0.60#

COc1ccc2c(c1)c(CC(=O)O)c(C)n2C(=O)c1ccc(Cl)cc1 [Indomethacin]
% Inhibition of IL-6 secretion (maximum) [3]: 53* % | stimulation of adiponectin secretion ([1]; LPS 100 ng/ml, […]): 9% | % Stimulation of adiponectin secretion (maximum) [1]: 9% | lipogenic/adipogenic response (3T3-L1 adipocytes): induced lipogenesis to a similar extent

CCc1ccc(CCOc2ccc(CC3SC(=O)NC3=O)cc2)nc1 (stereo not shown) [Pioglitazone]
IL-6 Index [3]: 0.37* | % Stimulation of adiponectin secretion (maximum) [1]: 12% | maximum increase of adiponectin secretion over TNFα control [4]: 80% | Adiponectin Index (maximum) ([4]; Test/TNFα control): 1.47

Cc1c(C)c2c(c(C)c1O)CCC(C)(COc1ccc(CC3SC(=O)NC3=O)cc1)O2 (stereo not shown) [Troglitazone]
% Stimulation of adiponectin secretion (maximum) [1]: 15% | maximum increase of adiponectin secretion over TNFα control [4]: 51%

CN(C)C(=N)N=C(N)N [metformin]
serum glucose relative to the controls (db/db mice): decreased | serum insulin relative to the controls (db/db mice): decreased

C[C@]12C=CC(=O)C=C1CC[C@@H]1[C@@H]2[C@@H](O)C[C@@]2(C)[C@H]1CC[C@]2(O)C(=O)CO [prednisolone]
reduction of serum IL-6 levels (DBA/J mice): reached a statistical significance

O=C(O)c1ccccc1O [salicylic acid]
IL-6 Index [3]: 0.52* | adiponectin secretion ([1]; LPS 100 ng/ml): failed to induce adiponectin secretion

COc1cc(O)c(CC=C(C)C)c(O)c1C(=O)/C=C/c1ccc(O)cc1 [xanthohumol]
IL-6 secretion [5]: Significant decreases in IL-6 secretion | lipogenic/adipogenic response (3T3-L1 adipocytes): comparable to indomethacin and troglitazone

Beta acids
Percent PGE2 Inhibition [6]: 83% | lipogenic/adipogenic response (3T3-L1 adipocytes): comparable to indomethacin and troglitazone
